# From the CheMixHub viscosity set
# ± gives the uncertainty stated by the source.
# Assay: xn = mol fraction of the nth substance listed
smiles,measurement,setting,value
Cc1cc(C)cc(C)c1 + C[N+](=O)[O-],viscosity,"293.15 K, 101.33 kPa, x2 = 0.1192",0.686 ± 0.007 mPa·s
same,viscosity,"293.15 K, 101.33 kPa, x2 = 0.2065",0.683 ± 0.007 mPa·s
same,viscosity,"293.15 K, 101.33 kPa, x2 = 0.3019",0.679 ± 0.007 mPa·s
same,viscosity,"293.15 K, 101.33 kPa, x2 = 0.3858",0.679 ± 0.007 mPa·s
same,viscosity,"293.15 K, 101.33 kPa, x2 = 0.4761",0.674 ± 0.007 mPa·s
same,viscosity,"293.15 K, 101.33 kPa, x2 = 0.6061",0.671 ± 0.007 mPa·s
same,viscosity,"293.15 K, 101.33 kPa, x2 = 0.7112",0.666 ± 0.007 mPa·s
same,viscosity,"293.15 K, 101.33 kPa, x2 = 0.7985",0.657 ± 0.007 mPa·s
same,viscosity,"293.15 K, 101.33 kPa, x2 = 0.8912",0.648 ± 0.007 mPa·s
OCCCCO + C[N+](C)(C)CCO.[Cl-],viscosity,"293.15 K, 101.3 kPa, x1 = 0.7519",112.9 ± 5.4 mPa·s
same,viscosity,"293.15 K, 101.3 kPa, x1 = 0.8",99.69 ± 4.6 mPa·s
same,viscosity,"293.15 K, 101.3 kPa, x1 = 0.8334",93.6 ± 4.2 mPa·s
same,viscosity,"293.15 K, 101.3 kPa, x1 = 0.8575",91.44 ± 4.1 mPa·s
same,viscosity,"298.15 K, 101 kPa, x2 = 0.2",70.2 ± 2.9 mPa·s
same,viscosity,"298.15 K, 101.3 kPa, x1 = 0.7519",87.4 ± 3.9 mPa·s
same,viscosity,"298.15 K, 101.3 kPa, x1 = 0.8",78.77 ± 3.4 mPa·s
same,viscosity,"298.15 K, 101.3 kPa, x1 = 0.8334",74.9 ± 3.2 mPa·s
same,viscosity,"298.15 K, 101.3 kPa, x1 = 0.8575",72.28 ± 3 mPa·s
same,viscosity,"298.2 K, 101.3 kPa, x2 = 0.1672",75.5 ± 3.1 mPa·s
same,viscosity,"303.15 K, 101.3 kPa, x1 = 0.7519",70.16 ± 2.9 mPa·s
same,viscosity,"303.15 K, 101.3 kPa, x1 = 0.8",62.96 ± 2.6 mPa·s
same,viscosity,"303.15 K, 101.3 kPa, x1 = 0.8334",59.28 ± 2.4 mPa·s
same,viscosity,"303.15 K, 101.3 kPa, x1 = 0.8575",57.86 ± 2.4 mPa·s
same,viscosity,"303.15 K, 101.3 kPa, x2 = 0.2",54.75 ± 1.1 mPa·s
same,viscosity,"303.15 K, 101.3 kPa, x2 = 0.25",60.64 ± 1.5 mPa·s
same,viscosity,"308.15 K, 101.3 kPa, x1 = 0.7519",59.73 ± 2.4 mPa·s
same,viscosity,"308.15 K, 101.3 kPa, x1 = 0.8",51.08 ± 2.1 mPa·s
same,viscosity,"308.15 K, 101.3 kPa, x1 = 0.8334",48 ± 2 mPa·s
same,viscosity,"308.15 K, 101.3 kPa, x1 = 0.8575",46.72 ± 1.9 mPa·s
same,viscosity,"308.15 K, 101.3 kPa, x2 = 0.2",44.49 ± 1.1 mPa·s
same,viscosity,"308.15 K, 101.3 kPa, x2 = 0.25",49.3 ± 1.3 mPa·s
same,viscosity,"308.2 K, 101.3 kPa, x2 = 0.1672",58.2 ± 2.4 mPa·s
same,viscosity,"313.15 K, 101.3 kPa, x1 = 0.7519",47.89 ± 2 mPa·s
same,viscosity,"313.15 K, 101.3 kPa, x1 = 0.8",41.67 ± 1.7 mPa·s
same,viscosity,"313.15 K, 101.3 kPa, x1 = 0.8334",39.41 ± 1.6 mPa·s
same,viscosity,"313.15 K, 101.3 kPa, x1 = 0.8575",38.31 ± 1.6 mPa·s
same,viscosity,"313.15 K, 101.3 kPa, x2 = 0.2",36.66 ± 1 mPa·s
same,viscosity,"313.15 K, 101.3 kPa, x2 = 0.25",40.55 ± 1 mPa·s
same,viscosity,"318.15 K, 101 kPa, x2 = 0.2",32.3 ± 1.3 mPa·s
same,viscosity,"318.15 K, 101.3 kPa, x1 = 0.7519",39.53 ± 1.6 mPa·s
same,viscosity,"318.15 K, 101.3 kPa, x1 = 0.8",34.51 ± 1.4 mPa·s
same,viscosity,"318.15 K, 101.3 kPa, x1 = 0.8334",32.5 ± 1.3 mPa·s
same,viscosity,"318.15 K, 101.3 kPa, x1 = 0.8575",31.67 ± 1.3 mPa·s
same,viscosity,"318.15 K, 101.3 kPa, x2 = 0.2",30.4 ± 0.74 mPa·s
same,viscosity,"318.15 K, 101.3 kPa, x2 = 0.25",33.94 ± 0.73 mPa·s
same,viscosity,"318.2 K, 101.3 kPa, x2 = 0.1672",42.8 ± 1.7 mPa·s
same,viscosity,"323.15 K, 101.3 kPa, x1 = 0.7519",33.04 ± 1.4 mPa·s
same,viscosity,"323.15 K, 101.3 kPa, x1 = 0.8",28.9 ± 1.2 mPa·s
same,viscosity,"323.15 K, 101.3 kPa, x1 = 0.8334",27.36 ± 1.1 mPa·s
same,viscosity,"323.15 K, 101.3 kPa, x1 = 0.8575",26.47 ± 1.1 mPa·s
same,viscosity,"323.15 K, 101.3 kPa, x2 = 0.2",25.74 ± 0.72 mPa·s
same,viscosity,"323.15 K, 101.3 kPa, x2 = 0.25",28.53 ± 0.7 mPa·s
O=S=O + Cc1cc(C)cc(C)c1,viscosity,"298.15 K, 101 kPa, x1 = 0.137",0.6381 ± 0.017 mPa·s
same,viscosity,"298.15 K, 101 kPa, x1 = 0.223",0.6062 ± 0.016 mPa·s
same,viscosity,"298.15 K, 101 kPa, x1 = 0.255",0.5926 ± 0.015 mPa·s
Cc1cc(C)cc(C)c1 + Cc1ccccc1,viscosity,"298.15 K, 100 kPa, x2 = 0.5",0.5957 ± 0.0086 mPa·s
same,viscosity,"298.15 K, 101.33 kPa, x2 = 0.5",0.5957 ± 0.0087 mPa·s
same,viscosity,"298.24 K, 100 kPa, x2 = 0.8",0.5709 ± 0.0083 mPa·s
same,viscosity,"298.24 K, 101.33 kPa, x2 = 0.8",0.5709 ± 0.0083 mPa·s
same,viscosity,"303.16 K, 101.33 kPa, x2 = 0.5",0.5616 ± 0.0083 mPa·s
same,viscosity,"303.18 K, 101.33 kPa, x2 = 0.8",0.5394 ± 0.008 mPa·s
same,viscosity,"307.82 K, 101.33 kPa, x2 = 0.8",0.5125 ± 0.0077 mPa·s
same,viscosity,"308.22 K, 101.33 kPa, x2 = 0.5",0.5315 ± 0.008 mPa·s
same,viscosity,"313.14 K, 100 kPa, x2 = 0.5",0.505 ± 0.0077 mPa·s
same,viscosity,"313.14 K, 101.33 kPa, x2 = 0.5",0.505 ± 0.008 mPa·s
same,viscosity,"313.26 K, 100 kPa, x2 = 0.8",0.4837 ± 0.0074 mPa·s
same,viscosity,"313.26 K, 101.33 kPa, x2 = 0.8",0.4837 ± 0.0074 mPa·s
same,viscosity,"317.67 K, 101.33 kPa, x2 = 0.8",0.4619 ± 0.0072 mPa·s
same,viscosity,"318.09 K, 101.33 kPa, x2 = 0.5",0.4792 ± 0.0074 mPa·s
same,viscosity,"322.66 K, 101.33 kPa, x2 = 0.8",0.4389 ± 0.0069 mPa·s
same,viscosity,"322.74 K, 101.33 kPa, x2 = 0.5",0.4583 ± 0.0072 mPa·s
O=S=O + Cc1ccccc1,viscosity,"298.15 K, 101 kPa, x1 = 0.0185",0.5449 ± 0.014 mPa·s
same,viscosity,"298.15 K, 101 kPa, x1 = 0.0455",0.5339 ± 0.014 mPa·s
same,viscosity,"298.15 K, 101 kPa, x1 = 0.104",0.5121 ± 0.013 mPa·s
same,viscosity,"298.15 K, 101 kPa, x1 = 0.1897",0.4881 ± 0.013 mPa·s
Cc1cc(C)cc(C)c1 + ClC(Cl)(Cl)Cl,viscosity,"298.15 K, 101 kPa, x1 = 0.1",0.8579 ± 0.011 mPa·s
same,viscosity,"298.15 K, 101 kPa, x1 = 0.2",0.8194 ± 0.01 mPa·s
same,viscosity,"298.15 K, 101 kPa, x1 = 0.3",0.7889 ± 0.0099 mPa·s
same,viscosity,"298.15 K, 101 kPa, x1 = 0.4",0.7637 ± 0.0096 mPa·s
same,viscosity,"298.15 K, 101 kPa, x1 = 0.5",0.7421 ± 0.0094 mPa·s
same,viscosity,"298.15 K, 101 kPa, x1 = 0.6",0.7226 ± 0.0091 mPa·s
same,viscosity,"298.15 K, 101 kPa, x1 = 0.7",0.7044 ± 0.0089 mPa·s
same,viscosity,"298.15 K, 101 kPa, x1 = 0.8",0.6875 ± 0.0087 mPa·s
same,viscosity,"298.15 K, 101 kPa, x1 = 0.9",0.672 ± 0.0085 mPa·s
O=S=O + ClC(Cl)(Cl)Cl,viscosity,"298.15 K, 101 kPa, x1 = 0.00784",0.8572 ± 0.022 mPa·s
same,viscosity,"298.15 K, 101 kPa, x1 = 0.0163",0.841 ± 0.022 mPa·s
same,viscosity,"298.15 K, 101 kPa, x1 = 0.0185",0.8352 ± 0.022 mPa·s
same,viscosity,"298.15 K, 101 kPa, x1 = 0.0267",0.82 ± 0.021 mPa·s
O=S=O + ClC(Cl)Cl,viscosity,"298.15 K, 101 kPa, x1 = 0.0035",0.5141 ± 0.013 mPa·s
same,viscosity,"298.15 K, 101 kPa, x1 = 0.004762",0.5053 ± 0.013 mPa·s
same,viscosity,"298.15 K, 101 kPa, x1 = 0.00539",0.5022 ± 0.013 mPa·s
OCCCCO + NC=O,viscosity,"318.15 K, 101 kPa, x2 = 0.1052",18.95 ± 0.33 mPa·s
CCC[NH3+].O=[N+]([O-])[O-] + O,viscosity,"298 K, 101 kPa, x2 = 0.1",50.56 ± 1.6 mPa·s
same,viscosity,"298 K, 101 kPa, x2 = 0.198",34.71 ± 1 mPa·s
same,viscosity,"298 K, 101 kPa, x2 = 0.294",24.59 ± 0.67 mPa·s
same,viscosity,"298 K, 101 kPa, x2 = 0.397",16.65 ± 0.43 mPa·s
same,viscosity,"298 K, 101 kPa, x2 = 0.494",11.43 ± 0.28 mPa·s
same,viscosity,"298 K, 101 kPa, x2 = 0.596",7.63 ± 0.18 mPa·s
same,viscosity,"298 K, 101 kPa, x2 = 0.696",5.02 ± 0.11 mPa·s
same,viscosity,"298 K, 101 kPa, x2 = 0.797",3.19 ± 0.07 mPa·s
same,viscosity,"298 K, 101 kPa, x2 = 0.9",1.86 ± 0.04 mPa·s
same,viscosity,"298 K, 101 kPa, x2 = 0.95",1.35 ± 0.03 mPa·s
